Assay results: PMC6747088, “THP-1 Cells and Pro-Inflammatory Cytokine Production: An In Vitro Tool for Functional Characterization of NOD1/NOD2 Antagonists” (International Journal of Molecular Sciences, 2019)

Assays:
THP-1 cells [1] = assay: IL-8 and TNF-α release from THP-1 cells treated with the compound alone or with LPS; format: cell-based, human; conditions: 20 h; for TNF-α release from naive THP-1 cells: agonist alone; for IL-8 release from naive THP-1 cells: MDP 2–200 µM, C12-iE-DAP 2–50 µM; for effect on LPS-induced TNF-α production: agonist 10 µM in combination with 1 ng/mL LPS
Experimental: THP-1 cells represent a convenient, robust, and reproducible alternative, which enables intra-assay comparison. A consistent protocol is of key importance to evaluate the compounds in a reproducible and unbiased manner. […] Recognition of an NOD1/NOD2 agonist triggers a signaling pathway leading to the activation of NF-κB and the production of pro-inflammatory cytokines (e.g., TNF-α, IL-1β, IL-6, IL-8). To define the optimal experimental conditions, preliminary experiments were conducted with C12-iE-DAP (lauroyl-γ-D-glutamyl-meso-diaminopimelic acid), an acylated derivative of iE-DAP, as a reference NOD1 agonist, and MDP as a NOD2 agonist. For isolated stimulation of NOD2 and NOD1 receptors, increasing concentrations of MDP (2–200 µM) and C12-iE-DAP (2–50 µM) were used, and the exposure time of 20 h was chosen based on previous experiments using THP-1 cells.
Figure 1 Dose-dependent effect of NOD1/NOD2 agonists on IL-8 (A) and TNF-α (B) secretion from THP-1 cells. IL-8 and TNF-α release from THP-1 cells were measured following 20 h treatment with increasing concentrations (up to 200 µM) of either C12-iE-DAP (NOD1 agonist) or MDP (NOD2 agonist). Columns represent means of duplicates ± SD of three independent experiments; * p < 0.05 vs. CTRL (Mann–Whitney test). Synergy of NOD1/NOD2 agonists and LPS (TLR4 agonist) on IL-8 (C) and TNF-α (D) secretion. IL-8 and TNF-α release from THP-1 cells were measured following 20 h treatment with either C12-iE-DAP or MDP, both at 2 and 10 µM, in the presence or absence of increasing concentrations of LPS (1 or 10 ng/mL). Columns represent means of duplicates ± SD of three independent experiments; * p < 0.05 vs. CTRL (Mann–Whitney test).
(§1) For all experiments, THP-1 cells (Istituto Zooprofilattico di Brescia, Brescia, Italy) were diluted to 10^6 cells/mL in RPMI 1640 containing 2 mM L-glutamine, 0.1 mg/mL streptomycin, 100 IU/mL penicillin, 50 μM 2-mercaptoethanol, and supplemented with 10% heat-inactivated fetal calf serum (media) and cultured at 37 °C in 5% CO2. The experiments were carried out on passages 3–12. To evaluate IL-8 and TNF-α production, cultures were set up in 24-well culture plates containing 500 μL of cells. They were pretreated with selected NOD antagonists at increasing concentrations for 1 h before the addition of either MDP or C12-iE-DAP (both at 10 µM) and then incubated for 20 h. Each concentration was tested in duplicate, and untreated cells were exposed to DMSO, which represented the vehicle control (not exceeding 0.2% final concentration). In synergy studies, cells were additionally stimulated with lipopolysaccharide (LPS, from Escherichia coli serotype 0127:B8, Sigma) at a final concentration of 1–10 ng/mL, as indicated in the figure legends. Cell-free supernatants were collected at 20 h by centrifugation at 3000 rpm for 5 min and stored at −80 °C.
(§2) IL-8 and TNF-α release from THP-1 cells were measured in cell-free supernatants obtained by centrifugation at 3000 rpm for 5 min and stored at −80 °C until measurement. IL-8 and TNF-α production were assessed by specific sandwich ELISA (Immunotools, Friesoythe, Germany; eBioScience/R&D Systems, Minneapolis, MN, USA). Results are expressed in pg/mL. The limit of detection was 15.6 pg/mL for IL-8 and 4 pg/mL for TNF-α.

NOD1 [2] = target: T1, NOD1 (Homo sapiens, UniProt Q9Y239); assay: C12-iE-DAP (NOD1 agonist)-induced IL-8 secretion from THP-1 cells; format: cell-based; conditions: 1 h pretreatment, C12-iE-DAP 10 µM, 20 h, read-out: IC50 (NOD1), inhibition of IL-8 release
T1 construct: THP-1 cells also express high levels of native functional NOD1 and NOD2 and respond to NOD stimulation by IL-8 secretion; endogenous in cells; host or cells: THP-1 cells (Istituto Zooprofilattico di Brescia)
T1 sequence (Q9Y239 1-953): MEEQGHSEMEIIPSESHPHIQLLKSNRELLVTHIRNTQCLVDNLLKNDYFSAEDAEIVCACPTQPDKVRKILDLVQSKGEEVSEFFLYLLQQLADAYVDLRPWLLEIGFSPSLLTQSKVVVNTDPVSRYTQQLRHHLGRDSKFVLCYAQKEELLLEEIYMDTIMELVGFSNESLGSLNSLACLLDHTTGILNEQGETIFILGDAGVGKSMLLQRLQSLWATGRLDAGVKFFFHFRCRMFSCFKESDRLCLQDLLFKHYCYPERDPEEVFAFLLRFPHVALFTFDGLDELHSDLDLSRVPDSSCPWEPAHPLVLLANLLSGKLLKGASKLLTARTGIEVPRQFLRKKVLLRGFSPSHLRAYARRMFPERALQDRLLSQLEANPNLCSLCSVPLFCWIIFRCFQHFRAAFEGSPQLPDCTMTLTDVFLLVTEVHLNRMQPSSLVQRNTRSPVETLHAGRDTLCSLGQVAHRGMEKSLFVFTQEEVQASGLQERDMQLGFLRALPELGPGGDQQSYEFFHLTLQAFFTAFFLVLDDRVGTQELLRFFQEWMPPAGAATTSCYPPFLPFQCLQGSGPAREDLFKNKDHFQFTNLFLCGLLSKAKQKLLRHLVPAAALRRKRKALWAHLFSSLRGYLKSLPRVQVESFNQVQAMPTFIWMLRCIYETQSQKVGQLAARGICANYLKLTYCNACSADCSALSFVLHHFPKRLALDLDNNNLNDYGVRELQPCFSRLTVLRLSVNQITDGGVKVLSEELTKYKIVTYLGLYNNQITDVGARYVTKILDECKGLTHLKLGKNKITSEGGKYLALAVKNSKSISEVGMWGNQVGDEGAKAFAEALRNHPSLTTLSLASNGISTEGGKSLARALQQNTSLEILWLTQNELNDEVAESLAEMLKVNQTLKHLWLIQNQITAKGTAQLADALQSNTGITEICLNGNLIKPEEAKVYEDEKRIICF
Experimental: For all experiments, THP-1 cells (Istituto Zooprofilattico di Brescia, Brescia, Italy) were diluted to 10^6 cells/mL in RPMI 1640 containing 2 mM L-glutamine, 0.1 mg/mL streptomycin, 100 IU/mL penicillin, 50 μM 2-mercaptoethanol, and supplemented with 10% heat-inactivated fetal calf serum (media) and cultured at 37 °C in 5% CO2. The experiments were carried out on passages 3–12. To evaluate IL-8 and TNF-α production, cultures were set up in 24-well culture plates containing 500 μL of cells. They were pretreated with selected NOD antagonists at increasing concentrations for 1 h before the addition of either MDP or C12-iE-DAP (both at 10 µM) and then incubated for 20 h. Each concentration was tested in duplicate, and untreated cells were exposed to DMSO, which represented the vehicle control (not exceeding 0.2% final concentration). […] Cell-free supernatants were collected at 20 h by centrifugation at 3000 rpm for 5 min and stored at −80 °C.

NOD2 [3] = target: T2, NOD2 (Homo sapiens, UniProt Q9HC29); assay: MDP (NOD2 agonist)-induced IL-8 secretion from THP-1 cells; format: cell-based; conditions: 1 h pretreatment, MDP 10 µM, 20 h, read-out: IC50 (NOD2), inhibition of IL-8 release
T2 construct: THP-1 cells also express high levels of native functional NOD1 and NOD2 and respond to NOD stimulation by IL-8 secretion; endogenous in cells; host or cells: THP-1 cells (Istituto Zooprofilattico di Brescia)
Experimental: as §1, §2
All experiments were performed at least three times, with average values expressed as means ± standard deviation (SD). Statistical analyses were performed using GraphPad Prism 6 (La Jolla, CA, USA). Statistical significance was determined either with the Mann-Whitney or Kruskal-Wallis followed by a post hoc Dunn’s multiple comparison test, as indicated in the figure legends. Differences were considered nonsignificant for p > 0.05, significant (*) for p < 0.05, very significant (**) for p < 0.01 and extremely significant (***) for p < 0.001. IC50 values of NOD1/2 inhibition were calculated by a nonlinear regression model using GraphPad Prism 6 software.

THP-1 cells [4] = assay: LDH leakage cytotoxicity in THP-1 cells; format: cell-based, human; conditions: 20 h
Experimental: Prior to investigating the effects of selected NOD antagonists on cytokine production, their potential cytotoxicity for THP-1 cells was assessed. Cell viability was assessed by leakage of LDH from damaged cells. LDH is a well-known indicator of cell membrane integrity and cell viability. Cells were treated for 20 h with the compound of interest at concentrations of up to 50 µM. LDH activity was determined in cell-free supernatants using a commercially available colorimetric kit (Takara Bio Inc., Kusatsu, Japan). Results are expressed as OD.

NOD1/2–TLR4 synergy = assay: NOD1/2–TLR4 synergy: TNF-α release from co-stimulated THP-1 cells; format: cell-based, human; conditions: antagonist 10 µM 1 h, NOD agonist 10 µM + LPS 1 ng/mL, 20 h
Experimental: Figure 5 Effect of selected NOD1/NOD2 antagonists on NOD1/2–TLR4 synergy. The THP-1 cells were preincubated for 1 h with NOD antagonists (at 10 µM) before being stimulated with either C12-iE-DAP or MDP (both at 10 µM) and 1 ng/mL LPS for 20 h, followed by determination of TNF-α release in the supernatant. Columns represent means of duplicates ± SD of three independent experiments. * p < 0.05, ** p < 0.01 and *** p < 0.001 vs. MDP/LPS- or C12-iE-DAP/LPS-treated cells (Kruskal-Wallis test and post hoc Dunn’s multiple comparison test).
For all experiments, THP-1 cells (Istituto Zooprofilattico di Brescia, Brescia, Italy) were diluted to 10^6 cells/mL in RPMI 1640 containing 2 mM L-glutamine, 0.1 mg/mL streptomycin, 100 IU/mL penicillin, 50 μM 2-mercaptoethanol, and supplemented with 10% heat-inactivated fetal calf serum (media) and cultured at 37 °C in 5% CO2. The experiments were carried out on passages 3–12. To evaluate IL-8 and TNF-α production, cultures were set up in 24-well culture plates containing 500 μL of cells. […]
as §2, with “Results are expressed in pg/mL. The limit of detection was 15.6 pg/mL for IL-8 and 4 pg/mL for TNF-α.” left out

NOD1 [5] = conditions: reporter assay, NOD-overexpressing HEK cells; cited from earlier work
NOD2 [6] = conditions: reporter assay, NOD-overexpressing HEK cells; cited from earlier work

T2 sequence (Q9HC29 whole entry): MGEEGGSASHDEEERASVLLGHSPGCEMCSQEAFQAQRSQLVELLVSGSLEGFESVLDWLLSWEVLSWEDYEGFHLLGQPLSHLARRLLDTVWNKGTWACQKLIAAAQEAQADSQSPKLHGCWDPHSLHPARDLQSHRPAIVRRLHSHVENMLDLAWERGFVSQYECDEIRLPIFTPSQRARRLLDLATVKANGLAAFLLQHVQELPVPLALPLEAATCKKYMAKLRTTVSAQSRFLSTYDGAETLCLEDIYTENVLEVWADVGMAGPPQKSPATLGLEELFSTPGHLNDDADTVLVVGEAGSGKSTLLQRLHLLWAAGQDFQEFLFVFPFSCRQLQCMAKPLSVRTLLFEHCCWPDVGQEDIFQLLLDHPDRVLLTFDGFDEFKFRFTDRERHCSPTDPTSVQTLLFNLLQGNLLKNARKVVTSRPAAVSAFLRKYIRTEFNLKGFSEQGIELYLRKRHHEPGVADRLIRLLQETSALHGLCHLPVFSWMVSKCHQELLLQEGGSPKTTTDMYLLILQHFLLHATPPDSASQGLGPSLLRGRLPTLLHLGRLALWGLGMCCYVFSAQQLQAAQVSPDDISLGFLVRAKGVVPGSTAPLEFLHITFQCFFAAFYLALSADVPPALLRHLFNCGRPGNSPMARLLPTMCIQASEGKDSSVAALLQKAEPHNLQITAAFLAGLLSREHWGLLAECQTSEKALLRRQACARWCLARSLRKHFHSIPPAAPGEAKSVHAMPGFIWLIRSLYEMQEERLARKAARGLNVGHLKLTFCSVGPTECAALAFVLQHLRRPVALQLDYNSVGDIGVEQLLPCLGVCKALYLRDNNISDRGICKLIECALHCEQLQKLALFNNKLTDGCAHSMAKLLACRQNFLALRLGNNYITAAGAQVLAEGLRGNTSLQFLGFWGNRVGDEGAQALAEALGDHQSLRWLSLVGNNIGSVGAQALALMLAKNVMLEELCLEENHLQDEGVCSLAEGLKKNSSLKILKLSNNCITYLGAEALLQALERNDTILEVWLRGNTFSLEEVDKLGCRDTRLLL

In the case of `CC(=O)N[C@H]1C(O)O[C@H](CO)[C@@H](O)[C@@H]1O[C@H](C)C(=O)N[C@@H](C)C(=O)N[C@H](CCC(=O)O)C(N)=O` (mixture of isomers) [MDP, muramyl dipeptide], the “TNF-α release from naive THP-1 cells” value (THP-1 cells [1]) is reported as “neither MDP nor C12-iE-DAP produced substantial TNF-α release”, the “IL-8 release from naive THP-1 cells” value (THP-1 cells [1]) is reported as “dose-dependent increase in IL-8 release” and the “effect on LPS-induced TNF-α production” value (THP-1 cells [1]) is reported as “significantly potentiated the production of TNF-α”.

With `CCCCCCCCCCCC(=O)N[C@H](CCC(=O)N[C@@H](CCC[C@@H](N)C(=O)O)C(=O)O)C(=O)O` [C12-iE-DAP, lauroyl-γ-D-glutamyl-meso-diaminopimelic acid] the “TNF-α release from naive THP-1 cells” value (THP-1 cells [1]) was “neither MDP nor C12-iE-DAP produced substantial TNF-α release”, the “IL-8 release from naive THP-1 cells” value (THP-1 cells [1]) was “dose-dependent increase in IL-8 release” and the “effect on LPS-induced TNF-α production” value (THP-1 cells [1]) was “significantly potentiated the production of TNF-α”.

In the case of `O=C(Cn1c(CCNC(=O)c2ccccc2)nc2ccccc21)Nc1ccc2c(c1)CCC2` [GSK669], the IC50 (NOD1 [2]) is reported as greater than 50 µM, the IC50 (NOD2 [3]) is reported as 1.57 ± 0.15 µM and the “concentrations showing cytotoxicity (LDH leakage)” value (THP-1 cells [4]) is reported as no less than 10 µM. For the same compound, the “effect on TNF-α release from co-stimulated cells” value (NOD1/2–TLR4 synergy) was “reduced TNF-α release to the level induced by the TLR4 agonist alone”, the IC50 (NOD1 [5]) was greater than 50 µM and the IC50 (NOD2 [6]) was 3.2 µM.

For `Cc1ccc(S(=O)(=O)n2c(N)nc3ccccc32)cc1` [ML130], the IC50 (NOD2 [3]) is listed as greater than 50 µM and the IC50 (NOD2 [6]) is listed as 54.9 µM.

In the case of `C/C=C/Cn1c(=O)c2[nH]c(SCCCc3ccccc3)nc2n(C)c1=O` [ML146], the IC50 (NOD1 [2]) is given as 10.5 ± 1.32 µM, the IC50 (NOD2 [3]) is given as 32.2 ± 5.16 µM and the IC50 (NOD1 [5]) is given as 4.35 µM. For the same compound, the IC50 (NOD2 [6]) was 12.9 µM.

For `CCOC(=O)c1cc2ccccc2n1S(=O)(=O)c1ccc(C)cc1` [SZA-39], the IC50 (NOD1 [2]) is given as 27.5 ± 6.85 µM, the IC50 (NOD2 [3]) is given as 14.4 ± 1.97 µM and the IC50 (NOD1 [5]) is given as 5.74 µM. For the same compound, the IC50 (NOD2 [6]) was 6.45 µM.
